From PMC4812366, “3,1-Benzothiazines, 1,4-Benzodioxines and 1,4-Benzoxazines as Inhibitors of Matriptase-2: Outcome of a Focused Screening Approach” (Pharmaceuticals, 2016)
Like-named read-outs stand apart in the source and are kept apart here.

Experiments:
human matriptase-2 [1] = target: T1, human matriptase-2 (Homo sapiens, UniProt Q8IU80); assay: Human matriptase-2 inhibition, fluorogenic substrate Boc-Gln-Ala-Arg-AMC, conditioned medium of HEK-MT2 cells; assay type: biochemical; details: for IC50: substrate 40 µM, pH 8.0, 37 °C; for matriptase-2 inhibitory activity in words: screening at single inhibitor concentration of 40 µM
T1 construct: The conditioned medium of HEK-MT2 cells was used as a source of matriptase-2 activity; expressed in transfected cells; host or cells: HEK-MT2 cells (conditioned medium, collected and concentrated)
T1 sequence (Q8IU80 577-811 limits assumed): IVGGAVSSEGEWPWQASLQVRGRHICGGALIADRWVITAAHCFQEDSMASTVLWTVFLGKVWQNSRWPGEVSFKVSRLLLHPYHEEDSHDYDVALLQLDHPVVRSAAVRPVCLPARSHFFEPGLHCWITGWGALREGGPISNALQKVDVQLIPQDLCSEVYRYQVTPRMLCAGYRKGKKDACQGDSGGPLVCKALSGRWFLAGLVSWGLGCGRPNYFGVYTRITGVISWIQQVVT
T1 sequence (Q8IU80 438-576 partner limits assumed): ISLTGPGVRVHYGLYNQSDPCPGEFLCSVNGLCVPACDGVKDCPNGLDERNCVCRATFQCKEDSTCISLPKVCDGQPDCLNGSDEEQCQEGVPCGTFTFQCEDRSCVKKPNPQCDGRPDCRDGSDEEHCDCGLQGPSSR
Procedure: The conditioned medium of HEK-MT2 cells was used as a source of matriptase-2 activity and assay conditions were as follows. Assay buffer was 50 mM Tris–HCl, 150 mM NaCl, pH 8.0. The conditioned medium was collected and concentrated, and aliquots of the supernatant were stored at −20 °C. After thawing, it was diluted with assay buffer (1:10 or 1:20 depending on the enzyme activity) and kept at 0 °C not longer than 8 h. The assays were performed at a FLUOstar OPTIMA PlateReader (BMG Labtech, Ortenberg, Germany). A 10 mM stock solution of the fluorogenic substrate Boc-Gln-Ala-Arg-AMC (Bachem, Bubendorf, Switzerland) in DMSO was diluted with assay buffer. The final concentration of the substrate was 40 µM and of DMSO was 6%. The substrate concentration of 40 µM refers to 1.24 × Km. Into each well containing 163.8 µL buffer, 11.2 µL of an inhibitor solution in DMSO and 10 µL of a substrate solution (800 µM) were added and thoroughly mixed. At 37 °C the reaction was initiated by adding 15 µL of diluted conditioned medium and followed over 400 s. All measurements were performed in duplicate with a single inhibitor concentration of 40 µM. Active inhibitors were investigated in duplicate with five different concentrations. Benzamidine hydrochloride was purchased from Acros Organics (Geel, Belgium).
Progress curves were analyzed by linear regression. IC50 values were determined by nonlinear regression using the equation vs = v0/(1 + [I]/IC50), where vs is the steady-state rate, v0 is the rate in the absence of the inhibitor, and [I] is the inhibitor concentration. Standard errors of the mean (SEM) values refer to this nonlinear regression.

thrombin = details: cited from earlier work; for thrombin inhibition relative to trypsin and factor Xa, in words: ref [39],[41]
human matriptase-2 [2] = target: T1, human matriptase-2; assay: Human matriptase-2 inhibition, fluorogenic substrate Boc-Gln-Ala-Arg-AMC, conditioned medium of HEK-MT2 cells; assay type: biochemical; details: substrate concentrations of 20, 30, 40, 50 and 60 µM
[3] = Table 2, 2,3-dihydro-1,4-benzodioxines and 3,4-dihydro-2H-1,4-benzoxazines, values with SEM: duplicate, five inhibitor concentrations, limits: duplicate, single inhibitor concentration of 40 µM, read-out: IC50 (µM) ± SEM
[4] = read-out: IC50 value for matriptase-2 inhibition
[5] = Table 1, 4H-3,1-benzothiazin-4-ones, values with SEM: duplicate, five inhibitor concentrations, limits: duplicate, single inhibitor concentration of 40 µM, read-out: IC50 (µM) ± SEM

IC50 (human matriptase-2 [1]; [3]) [µM] | matriptase-2 inhibitory activity in words (human matriptase-2 [1]) | IC50 (human matriptase-2 [1]; [5]) [µM] | Compound | other results
27.3 ± 2 | – | – | N=C(N)c1ccc(OC[C@@H]2COc3ccc(N(Cc4ccccc4)C(=O)C(=O)O)cc3O2)cc1 [(R)-10] | –
33.6 ± 1.1 | – | – | N=C(N)c1ccc(OC[C@@H]2COc3cc(N(Cc4ccccc4)C(=O)C(=O)O)ccc3O2)cc1 [(R)-11] | –
> 40 | inactive | – | CCOC(=O)C1CCN(c2ccc(N3C[C@@H](CNCc4ccc(C(=N)N)cc4)OC3=O)cc2)CC1 [(R)-24] | –
16.7 ± 1.7 | – | – | N=C(N)c1ccc(OC[C@H]2COc3ccc(N(Cc4ccccc4)C(=O)C(=O)O)cc3O2)cc1 [(S)-10] | –
29.8 ± 1.6 | – | – | N=C(N)c1ccc(OC[C@H]2COc3cc(N(Cc4ccccc4)C(=O)C(=O)O)ccc3O2)cc1 [(S)-11] | –
8.47 ± 0.76 | – | – | CCOC(=O)C(=O)N(Cc1ccccc1)c1ccc2c(c1)O[C@@H](COc1ccc(C(=N)N)cc1)CO2 [(S)-12, (S)-Ethyl 2-(benzyl(3-((4-carbamidoylphenoxy)methyl)-2,3-dihydrobenzo[b][1,4]dioxin-6-yl)amino)-2-oxoacetate] | IC50 (human matriptase-2 [1]; [4]): < 10 µM; thrombin inhibition in words (thrombin; ref [38]): highly potent
– | lack of inhibitory activity | – | N=C(N)c1ccccc1 [Benzamidine, reference compound] | IC50 (human matriptase-2 [1]; [4]): > 400 µM
– | – | 148 ± 28 | CN(C)CCNC(=O)c1ccc2nc(NC(=O)c3ccccc3)sc(=O)c2c1 [Compound 1] | –
– | loss of activity | > 160 | CN(C)CCNC(=O)c1ccc2c(=O)sc(NC(=O)c3ccccc3)nc2c1 [Compound 2] | –
– | – | > 160 | CN1CCN(C(=O)c2ccc3nc(NC(=O)c4ccccc4)sc(=O)c3c2)CC1 [Compound 3] | –
– | – | > 160 | CN1CCN(C(=O)c2ccc3c(=O)sc(NC(=O)c4ccccc4)nc3c2)CC1 [Compound 4] | –
– | inactive | > 160 | O=C(Nc1nc2ccc(C(=O)N3CCN(Cc4ccccc4)CC3)cc2c(=O)s1)c1ccccc1 [Compound 5] | –
– | – | > 160 | O=C(Nc1nc2cc(C(=O)N3CCN(Cc4ccccc4)CC3)ccc2c(=O)s1)c1ccccc1 [Compound 6] | –
– | active | 119 ± 9 | NCc1ccc(C(=O)Nc2nc3ccccc3c(=O)s2)cc1 [Compound 7] | –
– | inactive | > 160 | CN1CCN(C(=O)c2ccc(C(=O)Nc3nc4ccccc4c(=O)s3)cc2)CC1 [Compound 8] | –
– | inactive | > 160 | O=C(Nc1nc2ccccc2c(=O)s1)c1ccc(C(=O)N2CCN(Cc3ccccc3)CC2)cc1 [Compound 9] | –
> 40 | inactive | – | CN1CC(C)(COc2ccc(C(=N)N)cc2)Oc2cc(N(Cc3ccc(F)cc3)C(=O)C(=O)O)ccc21 (stereo not shown) [Compound 13] | thrombin inhibition relative to trypsin and factor Xa, in words (thrombin): inhibited thrombin better than trypsin and factor Xa; thrombin inhibition in words (thrombin; ref [39]): highly active
35.8 ± 1.1 | – | – | CN1CC(C)(COc2ccc(C(=N)N)cc2)Oc2ccc(N(Cc3cc(F)cc(F)c3)C(=O)C(=O)O)cc21 (stereo not shown) [Compound 14] | –
25.8 ± 4 | – | – | CN1CC(C)(COc2ccc(C(=N)N)cc2)Oc2cc(N(CC(=O)O)Cc3cc(F)cc(F)c3)ccc21 (stereo not shown) [Compound 15] | thrombin inhibition relative to trypsin and factor Xa, in words (thrombin): inhibited thrombin better than trypsin and factor Xa
13.6 ± 2.31 | – | – | CN1CC(C)(COc2ccc(C(=N)N)cc2)Oc2cc(N(CC(=O)O)Cc3ccc(F)cc3)ccc21 (stereo not shown) [Compound 16] | thrombin inhibition relative to trypsin and factor Xa, in words (thrombin): inhibited thrombin better than trypsin and factor Xa
11.2 ± 1.61 | – | – | CN1CC(C)(COc2ccc(C(=N)N)cc2)Oc2ccc(N(CC(=O)O)Cc3ccc(F)cc3)cc21 (stereo not shown) [Compound 17] | –
31.6 ± 2.69 | – | – | CCOC(=O)CN(Cc1ccc(F)cc1)c1ccc2c(c1)OC(C)(COc1ccc(C(=N)N)cc1)CN2C (stereo not shown) [Compound 18] | –
38.8 ± 3.14 | moderately active | – | CN1CC(C)(COc2ccc(C(=N)N)cc2)Oc2cc(NC(=O)CCC(=O)O)ccc21 (stereo not shown) [Compound 19] | type of inhibition (Lineweaver-Burk plot) (human matriptase-2 [2]): mixed type of inhibition
31.4 ± 3.6 | moderately active | – | COC(=O)C(Cc1ccccc1)C(=O)Nc1ccc2c(c1)OC(C)(COc1ccc(C(=N)N)cc1)CN2C (stereo not shown) [Compound 20] | –
42.6 ± 4.7 | – | – | CN1C(=O)C(OCc2ccc(C(=N)N)cc2)Oc2cc(C(=O)Nc3ccccc3)ccc21 (stereo not shown) [Compound 21] | –
30.9 ± 3.4 | – | – | N=C(N)c1ccc(CN2C(=O)COc3cc(NC(=O)[C@H](N)Cc4ccccc4)ccc32)cc1 [Compound 22] | –
20.5 ± 2 | – | – | CCOC(=O)[C@H](CNC(=O)CN1C(=O)COc2cc(NC(=O)c3ccc(C(=N)N)cc3)ccc21)NS(=O)(=O)c1ccc(C)cc1 [Compound 23] | –
> 40 | inactive | – | COc1ccc2cc(S(=O)(=O)NN(Cc3cccc(C(=N)N)c3)C(=O)N(C)C3CCCC3)ccc2c1 [Compound 25] | –
